Laboratory results from BindingDB's records for doi:10.1021/jm00047a011 (Purdue University, 2021).

How the values were obtained:
[1] = target: T1, Nicotinamide N-methyltransferase (Homo sapiens, UniProt P40261); experiment: Inhibition of endogenous human NNMT overexpressed in human U2OS cells assessed incubated for 24 hrs by LC-MS/MS analysis
T1 sequence (P40261 whole entry): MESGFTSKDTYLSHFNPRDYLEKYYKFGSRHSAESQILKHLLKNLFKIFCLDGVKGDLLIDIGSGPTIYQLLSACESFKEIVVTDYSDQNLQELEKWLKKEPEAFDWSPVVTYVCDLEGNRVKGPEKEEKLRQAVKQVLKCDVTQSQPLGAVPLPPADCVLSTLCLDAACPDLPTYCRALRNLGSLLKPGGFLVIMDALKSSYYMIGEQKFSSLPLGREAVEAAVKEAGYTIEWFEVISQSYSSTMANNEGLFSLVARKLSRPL

[2] = target: T2, Nicotinamide N-methyltransferase (Mus musculus, UniProt O55239); experiment: Inhibition of endogenous mouse NNMT overexpressed in murine 3T3-L1 cells assessed incubated for 24 hrs by LC-MS/MS analysis
T2 sequence (O55239 whole entry): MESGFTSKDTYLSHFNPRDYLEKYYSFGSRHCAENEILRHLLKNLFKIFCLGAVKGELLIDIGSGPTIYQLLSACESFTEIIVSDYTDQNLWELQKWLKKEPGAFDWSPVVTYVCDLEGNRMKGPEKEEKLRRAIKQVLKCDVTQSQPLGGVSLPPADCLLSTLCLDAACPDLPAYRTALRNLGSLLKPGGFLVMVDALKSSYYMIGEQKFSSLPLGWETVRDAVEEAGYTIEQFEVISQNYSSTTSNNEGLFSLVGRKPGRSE

[3] = target: T1, Nicotinamide N-methyltransferase; experiment: Binding affinity to recombinant human NNMT SAM binding site expressed in Escherichia coli BL21 (DE3) using nicotinamide as substrate and AdoMet as cofactor preincubated for 10 mins followed by substrate addition and measured after 10 mins by UHP-HILIC-MS analysis
[4] = target: T1, Nicotinamide N-methyltransferase; experiment: Inhibition of NNMT (unknown origin) assessed as formation of MNA using nicotinamide as substrate and SAM as cofactor by fluorescence based assay

## COc1ccc(C(N)=O)cn1
[1]
  IC50: 1.6 µM
[2]
  IC50: 6.3 µM

## Nc1ncnc2c1ncn2[C@@H]1O[C@H](CSCC[C@H](N)C(=O)O)[C@@H](O)[C@H]1O [AdoHcy]
[3]
  IC50: 26.3 µM

## Nc1ncnc2c1ncn2[C@@H]1O[C@H](C[C@@H](N)CC[C@H](N)C(=O)O)[C@@H](O)[C@H]1O [SINEFUNGIN]
[3]
  IC50: 3.9 µM

## C=C(C)[C@@]12O[C@@]3(/C=C/C=C/CCCCC)O[C@@H]1[C@@H]1[C@@H]4O[C@]4(CO)[C@@H](O)[C@]4(O)C(=O)C(C)=C[C@H]4[C@@]1(O3)[C@H](C)[C@H]2OC(C)=O [YUANHUADINE]
[4]
  IC50: 4 µM
